Literature values, collected in patent US7645792B2, “Prodrugs of propofol, compositions and uses thereof” (XenoPort, Inc., priority 2004, dated 2010).

Settings: rats, oral dosing

With `CC(C)c1cccc(C(C)C)c1O` [propofol, 2,6-diisopropylphenol] as the compound, how does the “Administered drug undergoing first pass metabolism” value read?
Its value is “approximately 90%”.
